US20050054006A1, “Combinatorial fluorescent library based on the styryl scaffold” (New York University, priority 2003, published 2005)

Experiments:
[1] = tested on: UACC-62 human melanoma cells; assay: Organelle localization in live cells by fluorescence microscopy; conditions: live UACC-62 cells, fluorescence microscope λex=405, 490, 570 nm; λem>510 nm
[2] = Fluorescence excitation/emission of the styryl dye library compounds; format: physicochemical

| SMILES | LOCALIZATION [1] | EM(nm) ([2]; EX/EM peak no. 1) | EX(nm) ([2]; EX/EM peak no. 1) | EM(nm) ([2]; EX/EM peak no. 2) | EX(nm) ([2]; EX/EM peak no. 2) |
| --- | --- | --- | --- | --- | --- |
| Cc1ccnc(-c2cc(C=CC=Cc3ccccc3)cc[n+]2C)c1.[I-] [Compound J35] | CYTO | 580 nm | 340-420 nm |  |  |
| CC(=O)Nc1ccc(/C=C/c2cc[n+](C)c3ccccc23)cc1.[I-] [Compound G18] | MITO | 670 nm | 430 nm |  |  |
| COc1ccc2c(ccc(C=Cc3ccc(OCc4ccccc4)c(OCc4ccccc4)c3)[n+]2C)c1.[I-] [Compound I12] | VESICLE | 560 nm |  |  |  |
| C[n+]1ccc(C=Cc2c[nH]c3ccccc23)cc1Br.[I-] [Compound F24] | VESICLE | 550 nm | 460 nm |  |  |
| CN(C)c1ccc(/C=C/c2cc[n+](C)c3ccccc23)cc1.[I-] [Compound G19] | MITO | 670 nm | 500 nm |  |  |
| COc1ccc2c(ccc(C=CC=Cc3ccccc3)[n+]2C)c1.[I-] [Compound I35] | CYTO | 580 nm | 320-360 nm |  |  |
| COc1ccc2ccccc2c1C=Cc1cc[n+](C)c2ccccc12.[I-] [Compound G23] | VESICLE | 610 nm | 450-500 nm |  |  |
| C[n+]1ccccc1C=Cc1ccc(OCc2ccccc2)c(OCc2ccccc2)c1.[I-] [Compound C12] | MITO? and ER? | 520 nm | 390 (broad) nm |  |  |
| O=Cc1ccccc1C=Cc1cc[n+](C23CC4CC(CC(C4)C2)C3)cc1.[Br-] [Compound B25] | CYTO | 570 nm | 430 nm |  |  |
| C[n+]1ccc(C=Cc2c(F)c(F)c(F)c(F)c2F)c2ccccc21.[I-] [Compound G31] | MITO and NUCLEOLI | 650 nm | 430 nm |  |  |
| Cc1cccc(C=Cc2cccc3ccccc23)[n+]1C.[I-] [Compound L32] | MITO | 520 nm | 400(broad) nm |  |  |
| Cc1ccc(C=Cc2cc[n+](C)c3ccccc23)cc1.[I-] [Compound G8] | MITO | 650 nm | 440 nm |  |  |
| CN(C)c1ccc(C=CC=Cc2cc[n+](C34CC5CC(CC(C5)C3)C4)cc2)cc1.[Br-] [Compound B37] | MITO | 700 nm |  |  |  |
| COc1ccc(C=Cc2cc[n+](C)c3ccccc23)c2ccccc12.[I-] [Compound G14] | MITO | 620 nm | 480(broad) nm |  |  |
| O=[N+]([O-])c1ccc(C=Cc2cc[n+](C34CC5CC(CC(C5)C3)C4)cc2)cc1.[Br-] [Compound B22] | MITO | 600 nm | 410-420 nm |  |  |
| COc1ccc(/C=C/c2cc[n+](C34CC5CC(CC(C5)C3)C4)cc2)cc1OC.[Br-] [Compound B11] | MITO | 540 nm | 340-440 nm |  |  |
| COc1ccc2ccccc2c1C=Cc1cc[n+](C)cc1.[I-] [Compound A23] | CYTO and MITO | 540 nm | 450 (broad) nm |  |  |
| Cc1ccnc(-c2cc(C=Cc3ccccc3[N+](=O)[O-])cc[n+]2C)c1.[I-] [Compound J20] | VESICLE | 620 nm | 420 nm |  |  |
| COc1ccc2c(ccc(C=CC=Cc3ccc(N(C)C)cc3)[n+]2C)c1.[I-] [Compound I37] | CYTO | 730 nm | 530 nm |  |  |
| COc1cc(OC)c(OC)cc1C=Cc1cc[n+](C)c2ccccc12.[I-] [Compound G38] | VESICLE and CYTO and NUCLEI | 640 nm | 420 nm |  |  |
| COc1ccc2c(ccc(/C=C/c3ccc4ccccc4c3)[n+]2C)c1.[I-] [Compound I33] | VESICLE and MITO and NUCLEI | 640 nm | 420 nm | 560 nm | 320-460 nm |
